This is an account of results in patent US20250281498A1, “FUSED AMINO PYRIMIDINE COMPOUNDS FOR TREATMENT OF SYNUCLEINOPATHIES AND TDP-43 PROTEINOPATHIES” (Ovid Therapeutics Inc., priority 2024, published 2025).

Series [1] deals with acute brain slices exposed to 0-Mg. Nature of the series: late recurrent discharges in acute brain slices exposed to 0-Mg.
Another series has as its target T1, KCC2-S940A (Homo sapiens, UniProt Q9H2X9, S963A).
T1 construct: expressed in transfected cells; host or cells: HEK-293
T1 sequence (Q9H2X9 1-1116 isoform Q9H2X9-2 S940A): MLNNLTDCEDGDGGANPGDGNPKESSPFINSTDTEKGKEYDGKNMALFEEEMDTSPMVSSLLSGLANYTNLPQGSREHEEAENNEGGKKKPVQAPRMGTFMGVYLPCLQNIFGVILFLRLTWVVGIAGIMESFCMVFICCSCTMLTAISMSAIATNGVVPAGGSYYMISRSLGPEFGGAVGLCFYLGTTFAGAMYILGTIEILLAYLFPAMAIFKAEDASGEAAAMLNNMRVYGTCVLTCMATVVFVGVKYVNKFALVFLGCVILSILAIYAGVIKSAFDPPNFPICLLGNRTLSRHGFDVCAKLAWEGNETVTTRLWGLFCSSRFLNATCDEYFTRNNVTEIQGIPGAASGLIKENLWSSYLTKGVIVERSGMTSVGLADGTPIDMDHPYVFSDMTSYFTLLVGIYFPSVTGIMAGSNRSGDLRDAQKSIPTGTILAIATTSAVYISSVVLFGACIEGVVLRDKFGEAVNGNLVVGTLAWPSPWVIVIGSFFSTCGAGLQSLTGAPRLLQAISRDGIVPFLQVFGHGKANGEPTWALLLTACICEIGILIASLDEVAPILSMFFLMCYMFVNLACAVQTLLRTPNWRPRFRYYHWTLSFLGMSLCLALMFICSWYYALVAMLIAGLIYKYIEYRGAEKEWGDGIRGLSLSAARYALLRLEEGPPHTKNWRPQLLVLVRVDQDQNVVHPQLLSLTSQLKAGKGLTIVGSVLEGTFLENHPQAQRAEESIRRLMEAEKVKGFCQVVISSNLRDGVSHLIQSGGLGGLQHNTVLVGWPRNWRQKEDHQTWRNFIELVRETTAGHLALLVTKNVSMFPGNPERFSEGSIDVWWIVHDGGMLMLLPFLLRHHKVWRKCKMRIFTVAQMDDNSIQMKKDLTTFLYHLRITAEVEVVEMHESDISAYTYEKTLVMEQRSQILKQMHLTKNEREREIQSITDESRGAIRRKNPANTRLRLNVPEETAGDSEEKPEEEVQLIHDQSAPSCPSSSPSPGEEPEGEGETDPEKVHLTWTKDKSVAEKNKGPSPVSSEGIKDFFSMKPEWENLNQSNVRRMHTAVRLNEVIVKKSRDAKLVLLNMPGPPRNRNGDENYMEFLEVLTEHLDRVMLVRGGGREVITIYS
In words: TI+ flux assay, HEK-293 cells expressing KCC2-S940A. In kind it is cell-based. The procedure: FLIPR TI Flux assay. HEK-293 cells were washed with HBSS, and then incubated with loading buffer containing TI sensitive fluorescent dye (https://www.moleculardevices.com), 20 μM bumetanide 20 μM ouabain and 2.5 mM probenecid for 1 h at room temperature (RT) under control conditions or with drugs in the dark using a FlexStation 3 microplate reader (Molecular Devices) and imaged […] for 30 min. Stimulus buffer was added containing 5 mM K^+/0.5 mM Tl^+ and cells were imaged every 1.5 over a 190 second time course The initial rate Tl^+ uptake (Relative Fluorescence Units (RFU) per second) was determined following addition of the stimulus buffer as outlined previously (Conway et al., 2017, supra) (Lee et al., 2022, supra).
Several studies have shown that the activity and plasma membrane accumulation of KCC2 is potentiated via phosphorylation of S940, a process mediated by the activity of protein kinase C and protein phosphatase 1 (Lee et al., 2011, supra; Lee et al., J Biol Chem 282, 29777-29784 (2007); Moore et al., Proc. Natl. Acad. Sci. U.S.A. 115, 10166-10171 (2018); Moore et al., Trends Neurosci. 40, 555-571 (2017); Silayeva et al., Proc. Natl. Acad. Sci. U.S.A. 112, 3523-3528 (2015)). […] Compared to KCC2, effects on KCC3, KCC4, and NKCC1 were only seen at concentrations more than 35-fold that of KCC2 (>100 μM) (FIG. 1G).

On the set-up of series [2]: species or system mice. Particulars: in vivo.

Turning to `C[C@@H]1CN(c2nc3c(c(Nc4ccc(C5CCCCC5)cc4)n2)COC3)CCO1` [Compound A, (R)—N-(4-cyclohexylphenyl)-2-(2-methylmorpholino)-5,7-dihydrofuro[3,4-d]pyrimidin-4-amine], the “development of late recurrent discharges (LRDs)” value in series [1] was “reduced”. Further, on KCC2-S940A, the “activity of KCC2-S940A construct” value is “increased the activity”. Moreover, the “gross effects on mouse behavior in the open field” value in series [2] was “no gross effects on mouse behavior”. Besides, the “total distance traveled in open field” value in series [2] (mouse, sc, 50 mg/kg) stood at 6134.2±235.3 cm.
